Columns and labels:
[1] = biological target: T1, Bile acid receptor (Homo sapiens) (UniProt Q96RI1); assay: Agonist activity at human FXR expressed in african green monkey CV1 cells co-expressing ECRE with RXR co-factor up to 10 uM by luciferase reporter gene assay relative to CDCA; assay type: functional, cell-based; settings: CV-1
T1 sequence (whole entry): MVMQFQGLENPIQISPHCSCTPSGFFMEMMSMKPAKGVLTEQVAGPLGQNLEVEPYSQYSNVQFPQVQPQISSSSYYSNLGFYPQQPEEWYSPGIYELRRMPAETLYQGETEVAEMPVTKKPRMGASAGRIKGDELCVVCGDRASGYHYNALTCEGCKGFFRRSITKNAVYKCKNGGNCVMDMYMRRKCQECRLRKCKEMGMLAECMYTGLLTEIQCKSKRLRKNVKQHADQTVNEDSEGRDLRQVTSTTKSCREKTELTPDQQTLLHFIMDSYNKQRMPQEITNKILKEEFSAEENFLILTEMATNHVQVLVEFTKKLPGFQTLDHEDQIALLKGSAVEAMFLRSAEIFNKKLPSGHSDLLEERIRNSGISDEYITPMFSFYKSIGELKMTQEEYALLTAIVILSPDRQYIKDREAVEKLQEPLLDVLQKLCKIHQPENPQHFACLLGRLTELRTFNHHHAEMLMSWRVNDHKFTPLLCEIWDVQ

Bile acid receptor = biological target: T2, Bile acid receptor (Homo sapiens, UniProt Q96RI1); assay: Agonist activity at human FXR expressed in african green monkey CV1 cells co-expressing ECRE with RXR co-factor by luciferase reporter gene assay; assay type: functional, cell-based, CV-1
T2 sequence (Q96RI1 whole entry): T1 sequence (whole entry)

Efficacy [1] | EC50 (Bile acid receptor) | SMILES
139% | 29 nM | CCOC(=O)C1=CN(C(=O)c2ccc(OC)cc2)CC(C)(C)c2c1[nH]c1ccccc21
190% | 25 nM | CCOC(=O)C1=CN(C(=O)c2ccc(Cl)cc2)CC(C)(C)c2c1[nH]c1ccccc21
109% | 1100 nM | CCCCOC(=O)C1=CN(C(=O)c2ccc(F)cc2)CCc2c1[nH]c1ccccc21
120% | 500 nM | CC(C)OC(=O)C1=CN(C(=O)c2ccc(F)cc2)CCc2c1[nH]c1ccccc21
155% | 73 nM | CCOC(=O)C1=CN(C(=O)c2ccc(Cl)cc2)CC(C)c2c1[nH]c1ccccc21 (stereo not given)
144% |  | CCOC(=O)C1=CN(C(=O)c2ccc(F)c(F)c2)CC(C)(C)c2c1[nH]c1ccccc21
146% | 8 nM | CC(C)OC(=O)C1=CN(C(=O)c2ccc(F)cc2)CC(C)(C)c2c1[nH]c1ccccc21
170% | 32 nM | CCOC(=O)C1=CN(C(=O)c2ccc(F)c(F)c2)CC(C)c2c1[nH]c1ccccc21 (stereo not given)
160% | 57 nM | CCOC(=O)C1=CN(C(=O)c2ccc(F)cc2)CC(C)c2c1[nH]c1ccccc21 (stereo not given)
148% | 22 nM | CCOC(=O)C1=CN(C(=O)c2ccc(F)cc2)CC(C)(C)c2c1[nH]c1ccccc21
145% | 60 nM | CCOC(=O)C1=CN(C(=O)c2ccc(OC)cc2)CC(C)c2c1[nH]c1ccccc21 (stereo not given)
130% | 500 nM | CCCOC(=O)C1=CN(C(=O)c2ccc(F)cc2)CCc2c1[nH]c1ccccc21
100% | 600 nM | CCOC(=O)C1=CN(C(=O)c2ccc(F)cc2)CCc2c1[nH]c1ccccc21

Reference: ChEMBL document CHEMBL1140941 (J Med Chem, 2009)
